This note sets out measurements from US6818622B2 (Darwin Discovery Ltd., priority 1997, dated 2004).

Bounds are passed on as bounds.

For data set [1], the target named is collagenase-2 (MMP-8) (Homo sapiens, UniProt P22894). In words: MMP inhibition activity fluorimetric assay (Example A), MMP-8. Format: biochemical. Conditions: fluorimetric substrate 10 μM, 37° C. How it is done:
(§1) The potency of inhibitors of collagenase-1 (MMP-1), collagenase-2 (MMP-8), collagenase-3 (MMP-13), gelatinase-A (MMP-2), gelatinase-B (MMP-9) and stromelysin-1 (MMP-3) is determined using the following procedure:
(§2) Inhibitors are dissolved in dimethyl sulphoxide containing 0.02% β-mercaptoethanol, and serial dilutions are prepared. Activated enzyme is incubated in assay buffer containing 50 mM Tris, pH 7.4, 5 mM CaCl2, 0.002% NaN3 and Brij 35 in the presence and absence of inhibitor. Samples are preincubated at 37° C. for 15 minutes before the addition of the fluorimetric substrate (Mca-Pro-Leu-Gly-Leu-Dpa-Ala-Arg-NH2) to a final concentration of 10 μM.
(§3) The enzyme activity is compared to activity in a control devoid of inhibitor.

For data set [2], the system named is shedding of TNF RII by THP-1 cells (human monocytes). In words: Inhibition of TNF RII shedding (Example F). Format: cell-based. Conditions: read-out: Example F: inhibitor concentration effecting 50% inhibition of the shedding of TNF RII, THP-1 cells stimulated with LPS, 18 hours, ELISA. The procedure: After 18 hours the supernatant is assayed for the levels of sTNF RII using a commercially available ELISA kit. The activity in the presence of 0.1 mM inhibitor or dilutions thereof is compared to activity in a control devoid of inhibitor.

Data set [3] addresses T1, gelatinase-A (MMP-2) (Homo sapiens, UniProt P08253).
T1 sequence (P08253 110-660): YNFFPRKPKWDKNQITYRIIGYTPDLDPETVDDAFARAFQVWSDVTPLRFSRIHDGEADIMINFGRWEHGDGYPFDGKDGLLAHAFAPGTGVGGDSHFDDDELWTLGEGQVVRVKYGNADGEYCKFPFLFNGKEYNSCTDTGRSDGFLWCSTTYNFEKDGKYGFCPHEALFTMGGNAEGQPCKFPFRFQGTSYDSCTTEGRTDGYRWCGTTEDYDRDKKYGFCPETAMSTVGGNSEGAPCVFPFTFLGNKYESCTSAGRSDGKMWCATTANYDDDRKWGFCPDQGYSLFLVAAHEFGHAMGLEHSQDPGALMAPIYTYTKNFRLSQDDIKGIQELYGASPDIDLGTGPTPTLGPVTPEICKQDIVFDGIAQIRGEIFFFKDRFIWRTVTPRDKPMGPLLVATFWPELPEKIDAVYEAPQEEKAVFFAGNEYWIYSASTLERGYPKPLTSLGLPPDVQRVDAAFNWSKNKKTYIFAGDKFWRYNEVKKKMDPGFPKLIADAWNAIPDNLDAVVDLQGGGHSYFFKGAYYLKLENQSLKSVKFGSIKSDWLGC
In words: MMP inhibition activity fluorimetric assay (Example A), MMP-2. Format: biochemical. Conditions: fluorimetric substrate 10 μM, 37° C. How it is done:
as §1, §2, §3

Data set [4] relates to production of TNFα by peripheral blood mononuclear cells (PBMC). Put plainly: Inhibition of TNFα production (Example B). Conditions: read-out: Example B: inhibitor concentration effecting 50% inhibition of the production of TNFα; PBMC stimulated with LPS, 18 hours, ELISA. Format: cell-based. The procedure: PBMC are isolated from buffy coats by standard procedures using Ficoll. […] After 18 hours the supernatant is assayed for the levels of TNFα using a commercially available ELISA kit. The activity in the presence of 100 μM inhibitor or dilutions thereof is compared to activity in a control devoid of inhibitor.
For orientation: ELISA stands for enzyme-linked immunosorbent assay.

Data set [5] deals with gelatinase-B (MMP-9) (Homo sapiens, UniProt P14780). In words: MMP inhibition activity fluorimetric assay (Example A), MMP-9. Format: biochemical. Conditions: fluorimetric substrate 10 μM, 37° C. The procedure: as §1, §2, §3
gelatinase-B (MMP-9), sequence (P14780 107-707 limits assumed, species assumed): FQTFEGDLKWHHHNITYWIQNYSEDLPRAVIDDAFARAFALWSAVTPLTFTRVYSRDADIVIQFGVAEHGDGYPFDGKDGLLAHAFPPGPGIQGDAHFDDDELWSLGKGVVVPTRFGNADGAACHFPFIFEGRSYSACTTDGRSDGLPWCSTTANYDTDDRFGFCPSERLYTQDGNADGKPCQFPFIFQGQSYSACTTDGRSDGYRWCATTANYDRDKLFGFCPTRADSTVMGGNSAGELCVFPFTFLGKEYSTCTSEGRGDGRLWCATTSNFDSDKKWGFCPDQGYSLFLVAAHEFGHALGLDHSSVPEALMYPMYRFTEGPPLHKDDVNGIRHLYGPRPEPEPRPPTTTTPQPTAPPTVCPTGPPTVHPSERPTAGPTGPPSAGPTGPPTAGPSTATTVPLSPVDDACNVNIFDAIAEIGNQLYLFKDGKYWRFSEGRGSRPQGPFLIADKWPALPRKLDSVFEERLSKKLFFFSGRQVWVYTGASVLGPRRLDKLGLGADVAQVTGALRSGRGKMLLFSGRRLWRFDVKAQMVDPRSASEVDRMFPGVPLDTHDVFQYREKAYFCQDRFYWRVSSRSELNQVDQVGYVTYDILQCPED
Data set [6] addresses collagenase-3 (MMP-13) (Homo sapiens, UniProt P45452). In words: MMP inhibition activity fluorimetric assay (Example A), MMP-13. Format: biochemical. Conditions: fluorimetric substrate 10 μM, 37° C. The procedure: as §1, §2, §3
For data set [7], the system named is sIL-1RII shedding by PBMC. In words: Inhibition of sIL-1RII shedding (Example D). Format: cell-based. Conditions: read-out: Example D: inhibitor concentration effecting 50% inhibition of the shedding of sIL-1RII; PBMC stimulated with IL-13, 18 h, ELISA. How it is done:
An assay of sIL-1RII shedding by PBMC is conducted as follows: PBMC are isolated from buffy coats by standard procedures using Ficoll. A 100 μM solution of the inhibitor being tested or dilutions thereof are incubated for 18 h at 37° C. in an atmosphere of 5% CO2 with 2×10^6/ml PBMC stimulated with IL-13. The cells are centrifuged down and the supernatants tested for sIL-1RII using a commercially available ELISA kit. The activity in the presence of 100 μM inhibitor or dilutions thereof is compared to activity in a control devoid of inhibitor.

In data set [8] the target is T2, collagenase-1 (MMP-1) (Homo sapiens, UniProt P03956).
T2 sequence (P03956 100-469): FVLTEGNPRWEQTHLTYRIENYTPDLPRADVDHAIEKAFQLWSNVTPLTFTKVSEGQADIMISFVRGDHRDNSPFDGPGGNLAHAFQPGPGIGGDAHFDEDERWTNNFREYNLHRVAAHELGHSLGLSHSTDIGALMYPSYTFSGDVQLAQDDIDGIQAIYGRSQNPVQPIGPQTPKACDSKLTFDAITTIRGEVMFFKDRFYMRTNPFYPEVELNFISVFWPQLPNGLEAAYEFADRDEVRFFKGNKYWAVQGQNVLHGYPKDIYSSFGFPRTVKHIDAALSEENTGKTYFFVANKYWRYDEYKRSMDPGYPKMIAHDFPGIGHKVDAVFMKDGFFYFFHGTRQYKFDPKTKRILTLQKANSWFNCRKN
Put plainly: MMP inhibition activity fluorimetric assay (Example A), MMP-1. Format: biochemical. Conditions: fluorimetric substrate 10 μM, 37° C. The procedure:
as §1, §2, §3

The test system of data set [9] is L-selectin shedding by peripheral blood mononuclear cells (PBMC). Put plainly: Inhibition of L-selectin shedding (Example C). Format: cell-based. Conditions: 20 min, read-out: Example C: inhibitor concentration effecting 50% inhibition of the shedding of L-selectin, PBMC stimulated with PMA, ELISA. How it is done:
An assay of L-selectin shedding by peripheral blood mononuclear cells (PBMC) is conducted as follows: PBMC are isolated from buffy coats by standard procedures using Ficoll. A 100 μM solution of the inhibitor being tested or dilutions thereof is incubated for 20 min at 37° C. in an atmosphere of 5% CO2 with 4×10^6/ml PBMC stimulated with PMA. The cells are centrifuged down and the supernatants tested for sL-selectin using a commercially available ELISA kit. The activity in the presence of 100 μM inhibitor or dilutions thereof is compared to activity in a control devoid of inhibitor.

Data set [10] concerns sIL-6R shedding by HL-60 cells. In words: Inhibition of IL-6R shedding (Example E). Format: cell-based. Conditions: Homo sapiens, read-out: Example E: inhibitor concentration effecting 50% inhibition of the shedding of IL-6R; HL-60 cells stimulated with PMA, 24 h, ELISA. How it is done: An assay of sIL-6R shedding by HL-60 cells is conducted as follows: PBMC are isolated from buffy coats by standard procedures using Ficoll. A 100 μM solution of the inhibitor being tested or dilutions thereof is incubated for 24 h at 37° C. in an atmosphere of 5% CO2 with 2×10^6/ml HL-60 cells stimulated with PMA. The cells are centrifuged down and the supernatants tested for sIl-6R using a commercially available ELISA kit. The activity in the presence of 100 μM inhibitor or dilutions thereof is compared to activity in a control devoid of inhibitor.

Data set [11] has as its system marmoset joints and tendons. In words: Marmoset tendonitis study. Format: in vivo. Conditions: oral dosing at 30 and 100 mg/kg for 3 months; for Plasma levels on repeated plasma sampling: up to 9 h post-dose. The procedure:
Specific examples of compounds showing the desired profile are those of Examples 1 and 2 and cpd. 3 (see below). These three compounds have been tested in the marmoset tendonitis study. This procedure for this study has been defined by Wojtowicz-Praga et al, supra. The study was performed with oral dosing at 30 and 100 mg/kg for 3 months. […] See Hooper et al, supra.

For data set [12], the target named is stromelysin-1 (MMP-3) (Homo sapiens, UniProt P08254). In words: MMP inhibition activity fluorimetric assay (Example A), MMP-3. Format: biochemical. Conditions: fluorimetric substrate 10 μM, 37° C. How it is done: as §1, §2, §3
stromelysin-1 (MMP-3), sequence (P08254 100-477, species assumed): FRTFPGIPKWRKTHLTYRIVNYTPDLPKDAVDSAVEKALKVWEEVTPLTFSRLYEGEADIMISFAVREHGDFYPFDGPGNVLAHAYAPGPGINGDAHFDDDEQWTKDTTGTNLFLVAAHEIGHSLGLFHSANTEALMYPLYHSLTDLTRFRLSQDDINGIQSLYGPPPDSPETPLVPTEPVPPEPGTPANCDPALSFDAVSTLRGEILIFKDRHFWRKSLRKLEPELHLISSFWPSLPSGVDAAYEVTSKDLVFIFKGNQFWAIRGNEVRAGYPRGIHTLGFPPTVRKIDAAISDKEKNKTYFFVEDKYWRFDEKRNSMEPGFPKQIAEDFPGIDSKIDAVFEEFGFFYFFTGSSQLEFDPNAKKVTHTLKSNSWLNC

collagenase-2 (MMP-8), sequence (P22894 101-467, species assumed): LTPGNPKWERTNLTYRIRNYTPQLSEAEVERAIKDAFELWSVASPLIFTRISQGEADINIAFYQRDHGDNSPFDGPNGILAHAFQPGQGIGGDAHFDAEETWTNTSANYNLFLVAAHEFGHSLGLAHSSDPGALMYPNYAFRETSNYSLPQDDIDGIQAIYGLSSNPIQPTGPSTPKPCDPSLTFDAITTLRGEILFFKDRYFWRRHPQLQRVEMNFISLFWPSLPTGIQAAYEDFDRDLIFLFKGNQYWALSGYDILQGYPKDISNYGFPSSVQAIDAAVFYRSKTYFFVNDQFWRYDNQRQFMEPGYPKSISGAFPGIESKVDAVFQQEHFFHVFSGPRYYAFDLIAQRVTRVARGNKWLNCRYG

As to `CNC(=O)[C@@H](NC(=O)[C@H](CC(C)C)NC(=O)[C@@H](S)CCCN1C(=O)c2ccccc2C1=O)C(C)(C)C` [Cpd. 3, (S)-N-[2-mercapto-5-phthalimido]pentanoyl-L-leucyl-(S)-tert-leucine N-methylamide], the IC50 is 9 nM in [1]; greater than 50000 nM in data set [2]; 15 nM in data set [3]; 10000 nM in data set [4]; 5 nM in data set [5]; 2 nM in data set [6]. In addition, the IC50 in data set [7] is greater than 50000 nM; in data set [8], 28 nM; in data set [9] it was greater than 50000 nM; in data set [10], greater than 50000 nM; in data set [12] it was 179 nM. The Continuous clinical observation entry in data set [11] is “no adverse effects”. For the same compound, the “Histological observation of joints and tendons” value (from here on “Histological observation”) in data set [11] was “no adverse effects on joints and tendons”. Moreover, the “Plasma levels on repeated plasma sampling” value (“Plasma levels” for short) in [11] is listed as “sustained levels in excess of the enzymes' IC50”.

For `CNC(=O)[C@@H](NC(=O)[C@H](CC(C)C)NC(=O)[C@@H](S)CCN1C(=O)CCC1=O)C(C)(C)C` [Ex. 1, 2S-[4-(2,5-Dioxopyrrolidin-1-yl)-2S-mercaptobutyrylamino]-4-methylpentanoic Acid (2,2-Dimethyl-1S-methylcarbamoylpropyl)-amide], the IC50 in data set [1] was 10 nM; in data set [2], greater than 50000 nM; in [3], 130 nM; in data set [4] it was greater than 50000 nM; in data set [5], 53 nM; in [6] it was 4 nM. The IC50 is 38000 nM in [7]; 12 nM in [8]; greater than 50000 nM in [9]; greater than 50000 nM in data set [10]; 381 nM in data set [12]. The Continuous clinical observation entry in data set [11] is listed as “no adverse effects”. In addition, the “Histological observation” value in [11] is “no adverse effects on joints and tendons”. Moreover, the “Plasma levels” value in data set [11] was “sustained levels in excess of the enzymes' IC50”.

`CNC(=O)[C@@H](NC(=O)[C@H](CC(C)C)NC(=O)[C@@H](S)CCN1C(=O)N(C)C(C)(C)C1=O)C(C)(C)C` [Ex. 2, 2S-[2S-Mercapto-4-(3,4,4-trimethyl-2,5-dioxoimidazolidin-1-yl)butyrylamino]-4-methylpentanoic Acid (2,2-Dimethyl-1S-methylcarbamoylpropyl)amide]: the IC50 in [1] was 10 nM; in data set [2], greater than 50000 nM; in data set [3], 41 nM; in [4], greater than 50000 nM; in data set [5] it was 25 nM; in data set [6], 4 nM. The IC50 in [7] is greater than 50000 nM; in [8] it was 25 nM; in [9] it was greater than 50000 nM; in data set [10], greater than 50000 nM; in [12], 157 nM. Also, the Continuous clinical observation entry in data set [11] is “no adverse effects”. Moreover, the “Histological observation” value in [11] was “no adverse effects on joints and tendons”. The “Plasma levels” value in data set [11] is reported as “sustained levels in excess of the enzymes' IC50”.
